{
  "source": "patent US6828441B2",
  "about": "(priority 1998, dated 2004)",
  "data": [
    {"units": {"melting point": "°C"}, "values": [
      {"smiles": "O=C(NCc1ncc(Cl)cc1Cl)c1c(Cl)cccc1Cl", "note": "[Compound 59, N-[(3,5-dichloro-2-pyridyl)methyl]-2,6-dichlorobenzamide]", "melting point": "161 to 165"},
      {"smiles": "CCOC(=O)C(NC(=O)c1ccc(OC)c(OC)c1)c1ncc(CF)cc1Cl", "note": "(centres unmarked)", "melting point": "40 to 43"},
      {"smiles": "CN(Cc1ncc(C(F)(F)F)cc1Cl)C(=O)c1c(Cl)cccc1Cl", "note": "[Compound 63, N-[(3-Chloro-5-trifluoromethyl-2-pyridyl)methyl]-N-methyl-2,6-dichlorobenzamide]", "melting point": "83 to 84"},
      {"smiles": "FC(F)(F)c1cnc(CNC(=S)c2ccccc2Cl)c(Cl)c1", "note": "[Compound 701, N-[(3-Chloro-5-trifluoromethyl-2-pyridyl)methyl]-2-chlorobenzenethioamide]", "melting point": "102 to 105"},
      {"smiles": "O=C(NC(Cc1ccccc1)c1ncc(C(F)(F)F)cc1Cl)c1c(Cl)cccc1Cl", "note": "(centres unmarked)", "melting point": "164 to 168"}
    ]}
  ]
}
